From patent US9750701B2, “Pharmaceutical dosage form” (GRÜNENTHAL GMBH, priority 2008, dated 2017)
Where two headings read alike, the source gives them in different places.

Test: pharmacokinetic data of tapentadol formulation (blood plasma concentrations)
Type: in vivo, patients/test subjects
Settings: human, formulation containing tapentadol; for AUC(0-inf): read-out: AUC0-∞ (total area under the curve); for half-life: read-out: t1/2 (half-life) (converted)
Excerpt: For the purposes of the description, the pharmacokinetic parameters, which may be determined from the blood plasma concentrations of the pharmacologically active compound (A), are defined as follows: […]
The above parameters are in each case stated as mean values of the individual values for all investigated patients/test subjects.
In a particularly preferred embodiment the pharmacologically active compound (A) is tapentadol or a physiologically acceptable salt thereof and the pharmaceutical dosage form according to the invention is bioequivalent to a formulation that contains tapentadol or a physiologically acceptable salt thereof in a dosage of 200 mg and 250 mg, respectively, and is characterized by the following pharmacokinetic data: […]

Question: Which results are given for CC[C@@H](c1cccc(O)c1)[C@@H](C)CN(C)C [tapentadol]?
Answer: Cmax (dosage 200 mg): 62.5 ng/mL; Tmax (dosage 200 mg): 5 h; AUC(0-inf) (dosage 200 mg): 825 ng·h/mL; half-life (dosage 200 mg): 5.2 h; Cmax (dosage 250 mg): 89.3 ng/mL; Tmax (dosage 250 mg): 5 h; AUC(0-inf) (dosage 250 mg): 1100 ng·h/mL; half-life (dosage 250 mg): 5.4 h
